{
  "source": "BindingDB's records for doi:10.1021/jm9800144",
  "about": "(Smithkline Beecham, 1998)",
  "target": "V-ATPase (Gallus gallus)",
  "experiment": "Compound was tested for inhibition of V-ATPase from Chicken osteoclasts (cOc)",
  "data": [
    {"compound": "COC(=O)/C(=C\\C=C\\c1cc2cc(Cl)c(Cl)cc2[nH]1)OC", "note": "[(2E,4E)-5-(5,6-Dichloro-1H-indol-2-yl)-2-methoxy-penta-2,4-dienoic acid methyl ester]", "values": [
      {"measurement": "IC50", "result": 1.9, "unit": "µM"}
    ]}
  ]
}
